Measurements published in patent publication US10004701B2, “Methods and compositions for treating infection” (UNIVERSITY OF ROCHESTER, priority 2012, dated 2018).
Where a name gives a salt, the structure may show the parent alone. Read-outs that look alike come from different tables or passages of the source.

Experiments:
Assay in all cases: AK assay 384-well format, Prestwick library screening
[1] = system: S. aureus strain USA300-0114; type: cell-based, Staphylococcus aureus; conditions: 50 μM final drug concentration; for fold induction at 50 µM: Staphylococcus aureus, USA300, 3 h
[2] = system: E. faecium; type: cell-based, Enterococcus faecium; conditions: 50 μM final drug concentration; for fold induction at 50 µM: Enterococcus faecium, 3 h
[3] = system: E. cloacae; type: cell-based, Enterobacter cloacae; conditions: 50 μM final drug concentration; for fold induction at 50 µM: Enterobacter cloacae, 3 h
[4] = system: E. coli; type: cell-based, Escherichia coli; conditions: 50 μM final drug concentration; for fold induction at 50 µM: Escherichia coli, 3 h
[5] = system: A. baumannii strain 98-37-09; type: cell-based, Acinetobacter baumannii; conditions: 50 μM final drug concentration; for fold induction at 50 µM: Acinetobacter baumannii, 983709, 3 h
[6] = system: P. aeruginosa; type: cell-based, Pseudomonas aeruginosa; conditions: 50 μM final drug concentration; for fold induction at 50 µM: Pseudomonas aeruginosa, 3 h
[7] = system: K. pneumoniae; type: cell-based, Klebsiella pneumoniae; conditions: 50 μM final drug concentration; for fold induction at 50 µM: Klebsiella pneumoniae, 3 h
[8] = planktonic, […], read-out: AK-based Prestwick Library Screening Results, S. aureus (fold increase in extracellular AK activity)
[9] = planktonic, […], read-out: AK-based Prestwick Library Screening Results, E. faecium (fold increase in extracellular AK activity)
[10] = planktonic, […], read-out: AK-based Prestwick Library Screening Results, E. cloacae (fold increase in extracellular AK activity)
[11] = planktonic, […], read-out: AK-based Prestwick Library Screening Results, E. coli (fold increase in extracellular AK activity)
[12] = planktonic, […], read-out: AK-based Prestwick Library Screening Results, A. baumannii (fold increase in extracellular AK activity)
[13] = planktonic, […], read-out: AK-based Prestwick Library Screening Results, P. aeruginosa (fold increase in extracellular AK activity)
[14] = planktonic, […], read-out: AK-based Prestwick Library Screening Results, K. pneumoniae (fold increase in extracellular AK activity)

CN[C@@H]1[C@@H](O)[C@@H](O[C@@H]2[C@@H](O)[C@H](O[C@H]3OC(CN)=CC[C@H]3N)[C@@H](N)C[C@H]2N)OC[C@]1(C)O [Sisomicin sulfate]
fold induction at 50 µM ([1]; planktonic S. aureus, cutoff for positive-scoring molecules 3-fold increase, read-out: AK-based Prestwick Library Screening Results, S. aureus (increase in extracellular AK activity)): 0.6 | fold induction at 50 µM ([2]; planktonic E. faecium, cutoff for positive-scoring molecules 3-fold increase, read-out: AK-based Prestwick Library Screening Results, E. faecium (increase in extracellular AK activity)): 0.9 | fold induction at 50 µM ([3]; planktonic E. cloacae, cutoff for positive-scoring molecules 3-fold increase, read-out: AK-based Prestwick Library Screening Results, E. cloacae (increase in extracellular AK activity)): 1 | fold induction at 50 µM ([4]; planktonic E. coli, cutoff for positive-scoring molecules 3-fold increase, read-out: AK-based Prestwick Library Screening Results, E. coli (increase in extracellular AK activity)): 0.8 | fold induction at 50 µM ([5]; planktonic A. baumannii, cutoff for positive-scoring molecules 3-fold increase, read-out: AK-based Prestwick Library Screening Results, A. baumannii (increase in extracellular AK activity)): 0.9 | fold induction at 50 µM ([6]; planktonic P. aeruginosa, cutoff for positive-scoring molecules 3-fold increase, read-out: AK-based Prestwick Library Screening Results, P. aeruginosa (increase in extracellular AK activity)): 0.9 | fold induction at 50 µM ([7]; planktonic K. pneumoniae, cutoff for positive-scoring molecules 3-fold increase, read-out: AK-based Prestwick Library Screening Results, K. pneumoniae (increase in extracellular AK activity)): 0.6

COc1ccc2c(OC)c3ccoc3nc2c1OC [Skimmianine]
fold induction at 50 µM [1, 8]: 0.6 | fold induction at 50 µM [2, 9]: 0.6 | fold induction at 50 µM [3, 10]: 1.1 | fold induction at 50 µM [4, 11]: 0.6 | fold induction at 50 µM [5, 12]: 0.5 | fold induction at 50 µM [6, 13]: 0.6 | fold induction at 50 µM [7, 14]: 0.5

CC1CCC2C(C)C3C(CC4C5CC=C6CC(OC7OC(CO)C(O)C(OC8OC(CO)C(O)C(O)C8O)C7OC7OC(C)C(O)C(O)C7O)CCC6(C)C5CCC43C)N2C1 (stereo not drawn) [Solanine alpha]
AK-based Prestwick Library Screening Results, S. aureus (fold increase in extracellular AK activity) ([1]; planktonic, […]): 1.2 | AK-based Prestwick Library Screening Results, E. faecium (fold increase in extracellular AK activity) ([2]; planktonic, […]): 1.0 | AK-based Prestwick Library Screening Results, E. cloacae (fold increase in extracellular AK activity) ([3]; planktonic, […]): 1.7 | AK-based Prestwick Library Screening Results, E. coli (fold increase in extracellular AK activity) ([4]; planktonic, […]): 1.2 | AK-based Prestwick Library Screening Results, A. baumannii (fold increase in extracellular AK activity) ([5]; planktonic, […]): 1.3 | AK-based Prestwick Library Screening Results, P. aeruginosa (fold increase in extracellular AK activity) ([6]; planktonic, […]): 1.2 | AK-based Prestwick Library Screening Results, K. pneumoniae (fold increase in extracellular AK activity) ([7]; planktonic, […]): 1.2

C[C@@H]1CC[C@@]2(NC1)O[C@H]1C[C@H]3[C@@H]4CC=C5C[C@@H](O)CC[C@]5(C)[C@H]4CC[C@]3(C)[C@H]1[C@@H]2C [Solasodine]
fold induction at 50 µM [1, 8]: 0.6 | fold induction at 50 µM [2, 9]: 0.9 | fold induction at 50 µM [3, 10]: 0.9 | fold induction at 50 µM [4, 11]: 1 | fold induction at 50 µM [5, 12]: 0.7 | fold induction at 50 µM [6, 13]: 1 | fold induction at 50 µM [7, 14]: 0.7

CC(C)NCC(O)c1ccc(NS(C)(=O)=O)cc1 (stereo not drawn) [Sotalol hydrochloride]
fold induction at 50 µM ([1]; cutoff for positive-scoring molecules 3-fold increase, read-out: AK-based Prestwick Library Screening Results, S. aureus (fold increase in extracellular AK activity)): 0.4 | fold induction at 50 µM ([2]; cutoff for positive-scoring molecules 3-fold increase, read-out: AK-based Prestwick Library Screening Results, E. faecium (fold increase in extracellular AK activity)): 0.8 | fold induction at 50 µM ([3]; cutoff for positive-scoring molecules 3-fold increase, read-out: AK-based Prestwick Library Screening Results, E. cloacae (fold increase in extracellular AK activity)): 0.4 | fold induction at 50 µM ([4]; cutoff for positive-scoring molecules 3-fold increase, read-out: AK-based Prestwick Library Screening Results, E. coli (fold increase in extracellular AK activity)): 0.4 | fold induction at 50 µM ([5]; cutoff for positive-scoring molecules 3-fold increase, read-out: AK-based Prestwick Library Screening Results, A. baumannii (fold increase in extracellular AK activity)): 0.5 | fold induction at 50 µM ([6]; cutoff for positive-scoring molecules 3-fold increase, read-out: AK-based Prestwick Library Screening Results, P. aeruginosa (fold increase in extracellular AK activity)): 0.4 | fold induction at 50 µM ([7]; cutoff for positive-scoring molecules 3-fold increase, read-out: AK-based Prestwick Library Screening Results, K. pneumoniae (fold increase in extracellular AK activity)): 0.5

C1CCN2C[C@@H]3C[C@@H](CN4CCCC[C@@H]34)[C@H]2C1 [Sparteine (−)]
AK-based Prestwick Library Screening Results, S. aureus (fold increase in extracellular AK activity) ([1]; planktonic, […]): 1.1 | AK-based Prestwick Library Screening Results, E. faecium (fold increase in extracellular AK activity) ([2]; planktonic, […]): 1.0 | AK-based Prestwick Library Screening Results, E. cloacae (fold increase in extracellular AK activity) ([3]; planktonic, […]): 1.7 | AK-based Prestwick Library Screening Results, E. coli (fold increase in extracellular AK activity) ([4]; planktonic, […]): 1.3 | AK-based Prestwick Library Screening Results, A. baumannii (fold increase in extracellular AK activity) ([5]; planktonic, […]): 1.0 | AK-based Prestwick Library Screening Results, P. aeruginosa (fold increase in extracellular AK activity) ([6]; planktonic, […]): 1.0 | AK-based Prestwick Library Screening Results, K. pneumoniae (fold increase in extracellular AK activity) ([7]; planktonic, […]): 1.0

CN[C@@H]1[C@H](O)[C@H](NC)[C@H]2O[C@@]3(O)C(=O)C[C@@H](C)O[C@H]3O[C@@H]2[C@H]1O [Spectinomycin dihydrochloride]
fold induction at 50 µM ([1]; planktonic, cutoff for positive-scoring molecules 3-fold increase, read-out: AK-based Prestwick Library Screening Results, S. aureus (fold increase in extracellular AK activity)): 0.6 | fold induction at 50 µM ([2]; planktonic, cutoff for positive-scoring molecules 3-fold increase, read-out: AK-based Prestwick Library Screening Results, E. faecium (fold increase in extracellular AK activity)): 1 | fold induction at 50 µM ([3]; planktonic, cutoff for positive-scoring molecules 3-fold increase, read-out: AK-based Prestwick Library Screening Results, E. cloacae (fold increase in extracellular AK activity)): 0.6 | fold induction at 50 µM ([4]; planktonic, cutoff for positive-scoring molecules 3-fold increase, read-out: AK-based Prestwick Library Screening Results, E. coli (fold increase in extracellular AK activity)): 0.6 | fold induction at 50 µM ([5]; planktonic, cutoff for positive-scoring molecules 3-fold increase, read-out: AK-based Prestwick Library Screening Results, A. baumannii (fold increase in extracellular AK activity)): 0.5 | fold induction at 50 µM ([6]; planktonic, cutoff for positive-scoring molecules 3-fold increase, read-out: AK-based Prestwick Library Screening Results, P. aeruginosa (fold increase in extracellular AK activity)): 0.5 | fold induction at 50 µM ([7]; planktonic, cutoff for positive-scoring molecules 3-fold increase, read-out: AK-based Prestwick Library Screening Results, K. pneumoniae (fold increase in extracellular AK activity)): 0.2

O=C(CCCN1CCC2(CC1)C(=O)NCN2c1ccccc1)c1ccc(F)cc1 [Spiperone]
fold induction at 50 µM ([1]; planktonic S. aureus, 384-well, cutoff for positive-scoring molecules 3-fold increase, read-out: AK-based Prestwick Library Screening Results: S. aureus (increase in extracellular AK activity)): 1 | fold induction at 50 µM ([2]; planktonic E. faecium, 384-well, cutoff for positive-scoring molecules 3-fold increase, read-out: AK-based Prestwick Library Screening Results: E. faecium (increase in extracellular AK activity)): 1.2 | fold induction at 50 µM ([3]; planktonic E. cloacae, 384-well, cutoff for positive-scoring molecules 3-fold increase, read-out: AK-based Prestwick Library Screening Results: E. cloacae (increase in extracellular AK activity)): 1.3 | fold induction at 50 µM ([4]; planktonic E. coli, 384-well, cutoff for positive-scoring molecules 3-fold increase, read-out: AK-based Prestwick Library Screening Results: E. coli (increase in extracellular AK activity)): 1.3 | fold induction at 50 µM ([5]; planktonic A. baumannii, 384-well, cutoff for positive-scoring molecules 3-fold increase, read-out: AK-based Prestwick Library Screening Results: A. baumannii (increase in extracellular AK activity)): 1.2 | fold induction at 50 µM ([6]; planktonic P. aeruginosa, 384-well, cutoff for positive-scoring molecules 3-fold increase, read-out: AK-based Prestwick Library Screening Results: P. aeruginosa (increase in extracellular AK activity)): 1.2 | fold induction at 50 µM ([7]; planktonic K. pneumoniae, 384-well, cutoff for positive-scoring molecules 3-fold increase, read-out: AK-based Prestwick Library Screening Results: K. pneumoniae (increase in extracellular AK activity)): 0.9

CC(=O)S[C@@H]1CC2=CC(=O)CC[C@]2(C)[C@H]2CC[C@@]3(C)[C@@H](CC[C@@]34CCC(=O)O4)[C@H]12 [Spironolactone]
fold induction at 50 µM ([1]; 384-well format, cutoff for positive-scoring molecules 3-fold increase, read-out: AK-based Prestwick Library Screening Results, S. aureus (increase in extracellular AK activity)): 1.2 | fold induction at 50 µM ([2]; 384-well format, cutoff for positive-scoring molecules 3-fold increase, read-out: AK-based Prestwick Library Screening Results, E. faecium (increase in extracellular AK activity)): 1 | fold induction at 50 µM ([3]; 384-well format, cutoff for positive-scoring molecules 3-fold increase, read-out: AK-based Prestwick Library Screening Results, E. cloacae (increase in extracellular AK activity)): 1.3 | fold induction at 50 µM ([4]; 384-well format, cutoff for positive-scoring molecules 3-fold increase, read-out: AK-based Prestwick Library Screening Results, E. coli (increase in extracellular AK activity)): 1.4 | fold induction at 50 µM ([5]; 384-well format, cutoff for positive-scoring molecules 3-fold increase, read-out: AK-based Prestwick Library Screening Results, A. baumannii (increase in extracellular AK activity)): 1.1 | fold induction at 50 µM ([6]; 384-well format, cutoff for positive-scoring molecules 3-fold increase, read-out: AK-based Prestwick Library Screening Results, P. aeruginosa (increase in extracellular AK activity)): 1 | fold induction at 50 µM ([7]; 384-well format, cutoff for positive-scoring molecules 3-fold increase, read-out: AK-based Prestwick Library Screening Results, K. pneumoniae (increase in extracellular AK activity)): 1
